Source: patent publication US12662707B2, “MYC amplification drives resistance to pan-RAS inhibitors in pancreatic cancer” (The Trustees of Columbia University in the City of New York, priority 2024, dated 2026)

How the values were obtained:
Assay type in all cases: in vivo, mouse
[1] = system: human DUSP6 expression in Capan-1 CDX tumors; assay: PK/PD in Capan-1 xenograft tumors (DUSP6 qRT-PCR)
Procedure: Tumor-bearing animals were randomized and assigned into groups (n=3-10/group). Vehicle or RMC-7977 was administered via oral gavage daily at 10 mg/kg and animals were treated for 21-28 days. Studies were terminated early if tumor burden reached humane endpoint. Body weights were collected twice a week during the study. Means±s.e.m were plotted in the waterfall plots. For the single-dose pharmacokinetic/pharmacodynamic (PK/PD) study, mice were randomized and assigned into groups (n=3-6/dose/timepoint). A single dose of RMC-7977 was administered orally at 10 mg/kg, 25 mg/kg and 50 mg/kg. […]
Whole blood, tumor, colon and skin tissue concentrations of RMC-7977 were determined using liquid chromatography-tandem mass spectrometry (LC-MS/MS) methods. […] After thorough mixing and centrifugation, the supernatant was directly analyzed on a Sciex 6500+ triple quadrupole mass spectrometer equipped with an ACQUITY or Shimadzu UPLC system. […] RMC-7977 and IS (verapamil or terfenadine) were detected by positive electrospray ionization using multiple reaction monitoring (RMC-7977: m/z 865.4/706.4 or m/z 865.3/833.5; verapamil: m/z 455.2/164.9; terfenadine: m/z 472.3/436.4). The lower limit of quantification was 0.5 ng/mL or 2.0 ng/mL for blood, tumor, and other tissue. […]

[2] = system: autochthonous KPCY pancreatic tumors; assay: Short-term study in KPCY mice; conditions: daily 25 mg/kg, two weeks
Procedure: Animals were randomized into groups and treated with Vehicle (n=6) or RMC-7977 (25 mg/kg; n=8). Treatments were performed every day via oral gavage for 15 days and ultrasounds were performed on day 8 and 15. Animals were sacrificed after last dose and tissue was collected and preserved as previously described (See Xenograft studies section).

[3] = system: normal tissues (colon, skin, liver, intestines, lungs, kidneys); assay: IHC and histopathology of normal tissues of KPC mice
Procedure: Tumor formation in KPC mice was monitored by bi-weekly palpation. […] Treatments were performed every other day via oral gavage for 1 week. […] Following two consecutive ultrasounds, RMC-7977-treated animals were sacrificed either 4 (n=7) or 24 hours (n=4) after last dose and Vehicle-treated animals were sacrificed between 4-24 hours post last dose. Tissue was harvested and preserved as previously described (See Xenograft studies section). Additional group of KPC mice was also treated with a single dose of RMC-7977 (n=10) or Vehicle (n=3) and tissues were harvested at 4 or 24 hours post dose as previously described. All tissues were fixed for up to 24 hours using 10% neutral buffered formalin and then moved to 70% ethanol for long term storage. All stainings were performed on 4-μm tissue sections. Sections were deparaffinized using a Leica XL ST5010 autostainer, after which slides were subjected to heat-activated epitope retrieval. […] Slides were further blocked in serum for 1 hour, and primary antibodies were added for overnight incubation at 4° C. […] Following incubation, ImmPACT DAB peroxidase (Vector Laboratories, SK-4100) was used to develop the stain and hematoxylin was used as nuclear counterstain. Stained slides were imaged at 40× magnification. Quantitative analyses of IHC images were performed using ImageJ.

CCn1c(-c2cc(N3CCN(C4CC4)CC3)cnc2[C@H](C)OC)c2c3cc(ccc31)-c1csc(n1)C[C@H](NC(=O)[C@H]1[C@@H]3COC[C@@H]31)C(=O)N1CCC[C@H](N1)C(=O)OCC(C)(C)C2 [RMC-7977]
EC50 ([1]; Mus musculus, CAPAN-1, read-out: EC50, inhibition of DUSP6 expression vs RMC-7977 concentration in tumors): 142 nM
duration of DUSP6 inhibition post-dose ([1]; single dose 10, 25 or 50 mg/kg): 24 to 48 h
tumor response ([2]; KPCY, C57Bl/6): regressions in most tumors
impact on animal weight [2]: little impact
effects on apoptosis (CC3) and proliferation (Cyclin A2) in colon and skin ([3]; SD, 1 Wk and EP KPC mice, all timepoints): absent or negligible
treatment-associated histopathological feature ([3]; proximal intestines of half the treated animals, no diarrhea or weight loss): modest increase in apoptosis
